Laboratory results taken from patent US20260041670A1, “DRUGS FOR PREVENTING AND/OR TREATING ALZHEIMER'S DISEASE” (SHENZHEN UNIVERSITY OF ADVANCED TECHNOLOGY, priority 2023, published 2026).
Converted amounts (≈) assume the structure as drawn. Where two headings read alike, the source gives them in different places. Blank lines part the entries; values can stand above or below the compound they belong to.

Columns and labels:
[1] = cited from earlier work
TrkB = biological target: T1, TrkB (Homo sapiens, UniProt Q16620); assay: Pro-survival MTT assay after staurosporine-induced apoptosis in BR6 and T48 cells; assay type: cell-based; conditions: STS 100 nM, 24 h, in words, relative to CF3CN
T1 construct: expressed in transfected cells; host or cells: human SH-SY5Y cells (BR6/Br6) and T48 cells
Experimental: FIG. 1b illustrates EC50 values of CF3CN and derivatives thereof. BR6 and T48 cells are treated with staurosporine (STS) (100 nM) and TrkB agonists. CF3CN and compounds #1-4 are added in a dose-dependent manner at concentrations of 0, 5, 10, 50, 100, 500, and 1,000 nM. After 24 h, an MTT assay is performed, and EC50 values are calculated using Prism software (n=3; data are represented by mean±standard deviation (SD)).
The pro-survival effects of four derivatives were quantitatively analyzed in human SH-SY5Y cells and T48 cells stably transfected with the TrkB. […] As PLCγ1 bound with a p-Y816 residue on the TrkB receptor and was subsequently tyrosine-phosphorylated by active TrkB, a tyrosine phosphorylation signal was also monitored in this example (FIG. 1c).

3×Tg mice [2] = assay: MRI cerebral cortex volume; assay type: in vivo; conditions: gavage 3 months
Experimental: FIG. 9c illustrates representative T2-weighted magnetic resonance imaging (MRI) scanning images of 3×Tg mice, with cortical regions of interest (ROI) marked by red lines.
FIG. 9d illustrates a quantified cerebral cortex volume of ROI (n=3, one-way ANOVA).
(§1) To investigate whether long-term chronic treatment with #2-NP alleviates cognitive deficits in 3×Tg AD model mice, mice were administered via gavage with #2 at 3 mg/kg, #2-NP at 3 mg/kg, and #2-NP at 10 mg/kg. […] The recognition index was increased by #2-NP in a dose-dependent manner (FIGS. 9a and b). […] Additionally, quantitative analysis of Aβ PET signals was performed using the specific ligand [18F] […] Collectively, #2-NP decreases cerebral Aβ deposition, reduces brain atrophy, and ameliorates cognitive deficits in 3×Tg mice.

[3] = ICR, mouse, in vivo
Experimental: (§2) FIG. 6b illustrates plasma concentrations following administration of #2 or #2-NP. ICR mice are divided into four groups, which are administered with #2 at 2 mg/kg (intravenous injection, IV), #2 at 5 mg/kg (oral administration, PO), #2-NP at 5 mg/kg (PO), and #2-NP at 10 mg/kg (PO). Blood samples are collected from all three mice of each group at corresponding time points, and concentrations of #2 are quantitatively analyzed by a liquid chromatography-tandem mass spectrometry (LC-MS/MS). Cmax: maximum plasma concentration; Tmax: time to maximum concentration; T½: terminal elimination half-life; AUC: area under curves; MRT: mean residence time; CL: clearance; and F: relative oral bioavailability.
(§3) FIG. 13a illustrates plasma concentrations and PK parameters of #2 quantitatively analyzed by LC-MS/MS after IG administration of #2, #2-NP, and #2-LIP at 5 mg/kg, as well as IN administration of #2 and #2-LIP at 5 mg/kg (n=3; data are represented by mean±SD).
(§4) FIG. 13b illustrates brain concentrations and PK parameters of #2 quantitatively analyzed by LC-MS/MS after IG administration of #2, #2-NP, and #2-LIP at 5 mg/kg, as well as IN administration of #2 and #2-LIP at 5 mg/kg (n=3; data are represented by mean±SD).
(§5) To investigate the in vivo PK profile of #2-NP, lyophilized #2-NP powder was redissolved. […] For quantitative comparison of the effects of the nanoparticle system in delivering #2 to the blood circulation system and brain tissues, PK studies were performed in 2-month-old ICR mice.

[4] = Stability in plasma (human); assay type: in vitro ADME; conditions: for half-life: plasma, read-out: Stability-Plasma T1/2
Solubility (pH 7.4; PBS) = assay type: physicochemical
[5] = Stability in hepatocytes (human); assay type: in vitro ADME; conditions: for hepatocyte CLint / half-life: hepatocytes; for hepatocyte CLint: read-out: Stability-Hepatocytes CL; for half-life: read-out: Stability-Hepatocytes T1/2
Aβ42 = assay: ELISA of Aβ42 in brain tissues; assay type: in vivo; conditions: 3×Tg mice, gavage 3 months
Experimental: FIG. 9i illustrates quantitative analysis of Aβ42 in brain tissues by an enzyme-linked immunosorbent assay (ELISA) (n=3, one-way ANOVA) (data are represented by mean±SD; […], ***p<0.005, ****p≤0.0001).
as §1

in vivo = conditions: ICR, mouse
Experimental: as §2, §3, §4, §5

[6] = Plasma protein binding (mouse); assay type: in vitro ADME; conditions: plasma, read-out: Plasma Protein Binding Fu, plasma
[7] = Plasma protein binding (human); assay type: in vitro ADME; conditions: plasma, read-out: Plasma Protein Binding Fu, plasma
[8] = Stability in hepatocytes (mouse); assay type: in vitro ADME; conditions: for hepatocyte CLint / half-life: hepatocytes; for hepatocyte CLint: read-out: Stability-Hepatocytes CL; for half-life: read-out: Stability-Hepatocytes T1/2
p-TrkB Y816 = assay: Immunofluorescent staining of p-TrkB in brain sections; assay type: in vivo; conditions: 3×Tg mice, IF staining
Source text: FIG. 11a illustrates immunofluorescent (IF) staining of p-TrkB and microtubule-associated protein 2 (MAP2) in brain tissues of 3×Tg mice, with a scale bar=50 μm.
FIG. 11e illustrates quantification of p-TrkB intensities in the hippocampus (n=6, one-way ANOVA) (data are represented by mean±SD; ns represents no statistically significant difference, *p<0.05, **p<0.01, ***p<0.001).
To further analyze the therapeutic effects of #2-NP against AD pathology, immunofluorescent (IF) staining of p-TrkB was performed on brain sections from drug-treated 3×Tg mice. […] Consequently, p-AEP IF signals were closely correlated with the upstream p-TrkB activity (FIGS. 11b & f). Simultaneously, active AEP IF staining was inversely coupled with the p-AEP activity, thereby leading to a progressive decline in APP C585 levels. Consistent with these findings, Tau N368 signals and AT8 IF intensity were closely correlated with each other (FIGS. 7C & D). Quantitative analysis of the fluorescence intensity confirmed these observations (FIGS. 11g-j).

[9] = Stability in microsomes (mouse); assay type: in vitro ADME
Aβ = assay: IHC staining of Aβ in brain sections; assay type: in vivo; conditions: 3×Tg mice, gavage 3 months
Experimental: FIG. 9e illustrates immunohistochemical (IHC) staining of Aβ in brain sections of 3×Tg mice, with a scale bar=50 μm.
FIG. 9f illustrates a quantitative diagram of FIG. 9e (n=6, one-way ANOVA).
as §1

Permeability Caco-2 = assay type: in vitro ADME; conditions: human, Caco-2
Permeability PAMPA-BBB = assay type: in vitro ADME; conditions: for Papp: PAMPA, read-out: Permeability-PAMPA-BBB Pe
3×Tg mice [10] = assay: Novel object recognition (NOR) test after 3 months treatment; assay type: in vivo; conditions: gavage 3 months, #2 3 mg/kg, #2-NP 3 and 10 mg/kg
Experimental: FIG. 9a illustrates representative movement trajectories in a novel object recognition (NOR) test for 3×Tg mice from a Vehicle group, a #2 3 mg/kg group, a #2-NP 3 mg/kg group, and a #2-NP 10 mg/kg group.
FIG. 9b illustrates statistical analysis of recognition indexes of different groups (n=6, one-way ANOVA).
as §1

hERG = hERG (Homo sapiens, UniProt Q12809); assay: hERG inhibition
[11] = Stability in plasma (mouse); assay type: in vitro ADME; conditions: for half-life: plasma, read-out: Stability-Plasma T1/2
[12] = Stability in microsomes (human); assay type: in vitro ADME; conditions: for microsomal CLint / half-life: liver microsomes; for microsomal CLint: read-out: Stability-Microsomes CL; for half-life: read-out: Stability-Microsomes T1/2
[13] = In vivo PK (plasma and brain, LC-MS/MS) in ICR mice; conditions: Table 1; dose and route not stated there
plasma proteins [14] = assay: Plasma protein binding (mouse); assay type: in vitro ADME
plasma proteins [15] = assay: Plasma protein binding (human); assay type: in vitro ADME
Caco-2 cells = assay: Permeability Caco-2; assay type: in vitro ADME

hERG, sequence (Q12809 whole entry): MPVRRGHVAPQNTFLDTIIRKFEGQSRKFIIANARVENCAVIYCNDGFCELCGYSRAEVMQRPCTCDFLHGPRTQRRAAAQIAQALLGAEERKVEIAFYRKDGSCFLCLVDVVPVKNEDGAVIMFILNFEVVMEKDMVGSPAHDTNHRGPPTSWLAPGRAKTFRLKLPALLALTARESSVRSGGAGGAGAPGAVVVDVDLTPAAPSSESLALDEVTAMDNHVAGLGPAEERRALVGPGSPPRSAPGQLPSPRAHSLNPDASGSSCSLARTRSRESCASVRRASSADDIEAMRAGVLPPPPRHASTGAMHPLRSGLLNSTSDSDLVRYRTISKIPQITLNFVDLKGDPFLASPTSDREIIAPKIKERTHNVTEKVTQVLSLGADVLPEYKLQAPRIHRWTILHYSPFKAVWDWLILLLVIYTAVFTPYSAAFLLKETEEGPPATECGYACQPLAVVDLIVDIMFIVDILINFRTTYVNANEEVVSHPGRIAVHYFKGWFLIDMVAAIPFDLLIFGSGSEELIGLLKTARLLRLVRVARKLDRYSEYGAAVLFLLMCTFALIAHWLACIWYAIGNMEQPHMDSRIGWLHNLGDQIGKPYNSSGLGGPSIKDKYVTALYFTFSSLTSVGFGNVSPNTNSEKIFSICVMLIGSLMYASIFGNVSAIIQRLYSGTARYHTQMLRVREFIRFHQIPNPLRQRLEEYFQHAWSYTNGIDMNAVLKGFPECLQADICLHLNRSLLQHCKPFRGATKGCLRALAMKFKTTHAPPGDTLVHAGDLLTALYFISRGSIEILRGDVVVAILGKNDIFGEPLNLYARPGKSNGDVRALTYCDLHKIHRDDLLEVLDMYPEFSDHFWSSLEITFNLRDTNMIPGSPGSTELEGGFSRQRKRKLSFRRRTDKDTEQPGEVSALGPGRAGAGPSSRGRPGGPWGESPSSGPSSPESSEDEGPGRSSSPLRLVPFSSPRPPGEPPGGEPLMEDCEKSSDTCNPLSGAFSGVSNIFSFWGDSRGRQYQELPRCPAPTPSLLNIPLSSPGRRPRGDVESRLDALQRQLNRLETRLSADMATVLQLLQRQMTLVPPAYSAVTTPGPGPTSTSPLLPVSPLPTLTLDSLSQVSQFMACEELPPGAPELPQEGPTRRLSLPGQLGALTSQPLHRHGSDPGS
T1 sequence (Q16620 32-822, species assumed): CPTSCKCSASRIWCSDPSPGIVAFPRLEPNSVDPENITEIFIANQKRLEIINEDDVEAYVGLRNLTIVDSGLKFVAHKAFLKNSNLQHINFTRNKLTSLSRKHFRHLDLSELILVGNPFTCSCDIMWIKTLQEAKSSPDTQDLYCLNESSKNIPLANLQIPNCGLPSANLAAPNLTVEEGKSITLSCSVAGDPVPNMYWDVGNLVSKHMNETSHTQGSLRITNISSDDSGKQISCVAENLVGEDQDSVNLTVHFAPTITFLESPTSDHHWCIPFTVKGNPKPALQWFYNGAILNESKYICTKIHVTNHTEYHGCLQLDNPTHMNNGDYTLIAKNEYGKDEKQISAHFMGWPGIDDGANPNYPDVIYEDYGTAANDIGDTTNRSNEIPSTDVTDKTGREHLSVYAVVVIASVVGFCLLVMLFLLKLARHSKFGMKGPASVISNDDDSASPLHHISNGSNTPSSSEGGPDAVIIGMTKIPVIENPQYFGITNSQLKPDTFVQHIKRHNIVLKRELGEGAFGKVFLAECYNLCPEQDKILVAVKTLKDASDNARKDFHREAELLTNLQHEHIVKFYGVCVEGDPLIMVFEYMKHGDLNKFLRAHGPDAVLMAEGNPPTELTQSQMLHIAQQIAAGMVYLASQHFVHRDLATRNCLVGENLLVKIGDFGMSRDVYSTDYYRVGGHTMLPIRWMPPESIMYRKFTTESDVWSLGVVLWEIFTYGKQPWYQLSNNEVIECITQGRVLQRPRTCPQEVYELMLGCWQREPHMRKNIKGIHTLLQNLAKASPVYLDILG

Compound: O=c1cc(-c2ccccc2)oc2c(O)c(O)ccc12 [7,8-DHF, 7,8-dihydroxyflavone]
- oral bioavailability ([1]; earlier work on 7,8-DHF): approximately 4.6%

Compound: NCc1ccc(-c2cc(=O)c3ccc4nc(C(F)(F)F)[nH]c4c3o2)cc1 [#1]
- pro-survival EC50 (TrkB): excessively high

- brain AUC ([3]; 5 mg/kg): 78.34 ng·h/mL
- plasma Cmax, IN versus PO administration ([3]; 5 mg/kg): approximately 10 fold
- clearance (CL) ([3]; inhaled or intranasal, 5 mg/kg): 43.95 mL/min/kg
- brain maximum concentration ([3]; iv): 18.47 ng/g
- brain AUC ([3]; iv, 2 mg/kg): 84.26 ng·h/mL
- brain Cmax ([3]; iv, 2 mg/kg): 164.38 ng/g
- brain maximum concentration ([3]; po): 27.663 ng/g
- brain AUC ([3]; po, 5 mg/kg): 35.75 ng·h/mL
- brain Cmax ([3]; po, 5 mg/kg): 18.47 ng/g
- clearance ([3]; po, 5 mg/kg): 223 mL/min/kg
- half-life [4]: > 8 h
- solubility (Solubility (pH 7.4; PBS); aqueous buffer): 50 µM (≈ 18.7 µg/mL)
- hepatocyte CLint [5]: < 3 µL/min/1e6 cells
- half-life [5]: > 8 h
- Kp (in vivo): ~0.1
- Cmax (in vivo; 5 mg/kg, maximum plasma concentration (Cmax)): 947 ng/mL
- AUC (in vivo; inhaled or intranasal, 5 mg/kg): 1900 ng·h/mL
- MRT (in vivo; inhaled or intranasal, 5 mg/kg): 2.11 h
- bioavailability (in vivo; inhaled or intranasal, 5 mg/kg): 34.3%
- half-life (in vivo; inhaled or intranasal, 5 mg/kg, elimination half-life): 1.54 h
- Cmax (in vivo; inhaled or intranasal, 5 mg/kg, maximum plasma concentration (Cmax)): 947 ng/mL
- AUC (in vivo; iv, 2 mg/kg): 2320 ng·h/mL
- half-life (in vivo; iv, 2 mg/kg, brain t1/2): 1.41 h
- half-life (in vivo; iv, 2 mg/kg, plasma half-life (t½)): 0.84 h
- half-life (in vivo; iv, half-life in the brain): 3.49 h
- AUC (in vivo; po, 5 mg/kg): 405 ng·h/mL
- Cmax (in vivo; po, 5 mg/kg, Cmax): 90.8 ng/mL
- half-life (in vivo; po, 5 mg/kg, brain t1/2): 3.49 h
- half-life (in vivo; po, 5 mg/kg, half-life in the brain): 2.39 h
- Cmax (in vivo; po, 5 mg/kg, maximum plasma concentration (Cmax)): 90.8 ng/mL
- half-life (in vivo; po, 5 mg/kg, plasma half-life (t½)): ~4.09 h
- half-life (in vivo; t1/2): 4.09 ± 2.65 h
- fraction unbound [6]: 0.012
- fraction unbound [7]: 0.046
- hepatocyte CLint [8]: < 3 µL/min/1e6 cells
- half-life [8]: > 8 h
- microsomal CLint ([9]; liver microsomes, read-out: Stability-Microsomes CL): 10.5 µL/min/mg
- half-life ([9]; liver microsomes, read-out: Stability-Microsomes T1/2): 2.22 h
- efflux ratio (Permeability Caco-2): 193
- Papp A→B (Permeability Caco-2; a-b): 0.0175 ×10⁻⁶ cm/s
- Papp B→A (Permeability Caco-2): 13.9 ×10⁻⁶ cm/s
- Papp (Permeability PAMPA-BBB): 0.135 ×10⁻⁶ cm/s
- half-life [11]: > 8 h
- microsomal CLint [12]: 2.32 µL/min/mg
- half-life [12]: 9.97 h
Compound: CNCc1ccc(-c2cc(=O)c3ccc4nc(C(F)(F)F)[nH]c4c3o2)cc1 [#2]
- cerebral cortex volume compared to the Vehicle group (3×Tg mice [2]): elevation trend without statistical significance
- pro-survival EC50 (TrkB): comparable
- Aβ42 content (Aβ42): significantly decreased
- p-TrkB Y816 in the hippocampus (p-TrkB Y816): significant activation
- Aβ aggregation in the hippocampus (Aβ): significantly reduced
- cognitive function in NOR test (recognition index) (3×Tg mice [10]): failed to improve
- IC50 (hERG): > 10 µM

- half-life [4]: > 8 h
- solubility (Solubility (pH 7.4; PBS); aqueous buffer): > 100 µM
- hepatocyte CLint [5]: < 3 µL/min/1e6 cells
- half-life [5]: > 8 h
- fraction unbound [6]: 0.005
- fraction unbound [7]: 0.002
- hepatocyte CLint [8]: < 3 µL/min/1e6 cells
- half-life [8]: > 8 h
- Papp B→A (Permeability Caco-2): 28.7 ×10⁻⁶ cm/s
- Papp (Permeability PAMPA-BBB): 0.815 ×10⁻⁶ cm/s
- half-life [11]: > 8 h
- microsomal CLint [12]: 1.03 µL/min/mg
- half-life [12]: 22.5 h
Compound: CNC(=O)c1ccc(-c2cc(=O)c3ccc4nc(C(F)(F)F)[nH]c4c3o2)cc1 [#3]
- IC50 (hERG): > 10 µM

- half-life [4]: > 8 h
- solubility (Solubility (pH 7.4; PBS); aqueous buffer): > 100 µM
- hepatocyte CLint [5]: < 3 µL/min/1e6 cells
- half-life [5]: > 8 h
- fraction unbound [6]: 0.009
- fraction unbound [7]: 0.004
- hepatocyte CLint [8]: < 3 µL/min/1e6 cells
- half-life [8]: > 8 h
- Papp B→A (Permeability Caco-2): 45.9 ×10⁻⁶ cm/s
- Papp (Permeability PAMPA-BBB): 1.27 ×10⁻⁶ cm/s
- half-life [11]: > 8 h
Compound: CN(C)C(=O)c1ccc(-c2cc(=O)c3ccc4nc(C(F)(F)F)[nH]c4c3o2)cc1 [#4]
- pro-survival EC50 (TrkB): comparable
- IC50 (hERG): > 10 µM

- Stability-Plasma T1/2 [4]: >480 (human) min
- t1/2 [13]: 2.994 ± 1.538 h
- solubility (Solubility (pH 7.4; PBS)): >200 µM
- Stability-Hepatocytes T1/2 [5]: >480 (human) min
- Plasma Protein Binding Fu, plasma (plasma proteins [14]): 3.55% (mouse)
- Plasma Protein Binding Fu, plasma (plasma proteins [15]): 0.101% (human);
- Stability-Hepatocytes T1/2 [8]: >480 (mouse); min
- Stability-Microsomes CL [9]: <12.8(mouse) μL/min/mg
- Stability-Microsomes T1/2 [9]: >180(mouse) min
- Caco-2 Efflux Ratio (Caco-2 cells): 3.6
- Permeability-Caco-2 Papp (b-a) (Caco-2 cells; b-a): 42.6 (b-a) 10 cm/s
- Permeability-PAMPA-BBB Pe (Permeability PAMPA-BBB): 3.09 10 cm/s
- Stability-Plasma T1/2 [11]: >480 (mouse); min
- Stability-Microsomes CL [12]: <12.8(human); μL/min/mg
- Stability-Microsomes T1/2 [12]: >180(human); min
Compound: N#Cc1ccc(-c2cc(=O)c3ccc4[nH]c(C(F)(F)F)nc4c3o2)cc1 [CF3CN, reference compound]
- B/P Ratio (Brain/Plasma Ratio) ([1]; earlier work on CF3CN): approximately 1%
- IC50 (hERG): > 25 µM
